According to PMC5605198, “MELK is not necessary for the proliferation of basal-like breast cancer cells” (eLife, 2017):
Where two headings read alike, the source gives them in different places.

Legend:
[1] = target: PKD1 (Homo sapiens, UniProt Q15139); test: ICKP radiometric kinase assay; type: biochemical; details: read-out: % AR (% kinase activity remaining)
[2] = target: PAK4 (Homo sapiens, UniProt O96013); test: ICKP radiometric kinase assay; type: biochemical; details: read-out: % AR (% kinase activity remaining)
[3] = target: JNK2 (Homo sapiens, UniProt P45984); test: ICKP radiometric kinase assay; type: biochemical; details: read-out: % AR (% kinase activity remaining)
[4] = target: IKK beta (Homo sapiens, UniProt O14920); test: ICKP radiometric kinase assay; type: biochemical; details: read-out: % AR (% kinase activity remaining)
[5] = test system: HCC70; test: Cell proliferation assay (CellTiter-Glo); details: Homo sapiens
[6] = target: PRAK (Homo sapiens, UniProt Q8IW41); test: ICKP radiometric kinase assay; type: biochemical; details: read-out: % AR (% kinase activity remaining)
[7] = target: CAMK1 (Homo sapiens, UniProt Q14012); test: ICKP radiometric kinase assay; type: biochemical; details: read-out: % AR (% kinase activity remaining)
[8] = target: JNK1 (Homo sapiens, UniProt P45983); test: ICKP radiometric kinase assay; type: biochemical; details: read-out: % AR (% kinase activity remaining)
[9] = target: MINK1 (Homo sapiens, UniProt Q8N4C8); test: ICKP radiometric kinase assay; type: biochemical; details: read-out: % AR (% kinase activity remaining)
[10] = target: PIM2 (Homo sapiens, UniProt Q9P1W9); test: ICKP radiometric kinase assay; type: biochemical; details: read-out: % AR (% kinase activity remaining)
[11] = target: GSK3A (Homo sapiens, UniProt P49840); test: Z’-LYTE enzymatic assay; details: Z’-LYTE assay at [ATP]=apparent Km; read-out: Biochemical IC50 GSK3A
[12] = test system: PHK; test: ICKP radiometric kinase assay; type: biochemical; details: 1 μM
[13] = target: MKK1 (Homo sapiens, UniProt Q02750); test: ICKP radiometric kinase assay; type: biochemical; details: read-out: % AR (% kinase activity remaining)
[14] = target: BRK (Homo sapiens, UniProt Q13882); test: ICKP radiometric kinase assay; type: biochemical; details: read-out: % AR (% kinase activity remaining)
[15] = target: PAK5 (Homo sapiens, UniProt Q9P286); test: ICKP radiometric kinase assay; type: biochemical; details: read-out: % AR (% kinase activity remaining)
[16] = target: MARK2 (Homo sapiens, UniProt Q7KZI7); test: ICKP radiometric kinase assay; type: biochemical; details: read-out: % AR (% kinase activity remaining)
[17] = target: BRSK2 (Homo sapiens, UniProt Q8IWQ3); test: ICKP radiometric kinase assay; type: biochemical; details: read-out: % AR (% kinase activity remaining)
[18] = target: TLK1 (Homo sapiens, UniProt Q9UKI8); test: ICKP radiometric kinase assay; type: biochemical; details: read-out: % AR (% kinase activity remaining)
[19] = target: MEKK1 (Homo sapiens, UniProt Q13233); test: ICKP radiometric kinase assay; type: biochemical; details: read-out: % AR (% kinase activity remaining)
[20] = target: YES1 (Homo sapiens, UniProt P07947); test: ICKP radiometric kinase assay; type: biochemical; details: read-out: % AR (% kinase activity remaining)
[21] = target: FGF-R1 (Homo sapiens, UniProt P11362); test: ICKP radiometric kinase assay; type: biochemical; details: read-out: % AR (% kinase activity remaining)
[22] = target: T1, DYRK3 (Homo sapiens, UniProt O43781); test: ICKP radiometric kinase assay; type: biochemical; details: for remaining activity at 1 µM: read-out: % AR (% kinase activity remaining)
T1 sequence (O43781 1-588): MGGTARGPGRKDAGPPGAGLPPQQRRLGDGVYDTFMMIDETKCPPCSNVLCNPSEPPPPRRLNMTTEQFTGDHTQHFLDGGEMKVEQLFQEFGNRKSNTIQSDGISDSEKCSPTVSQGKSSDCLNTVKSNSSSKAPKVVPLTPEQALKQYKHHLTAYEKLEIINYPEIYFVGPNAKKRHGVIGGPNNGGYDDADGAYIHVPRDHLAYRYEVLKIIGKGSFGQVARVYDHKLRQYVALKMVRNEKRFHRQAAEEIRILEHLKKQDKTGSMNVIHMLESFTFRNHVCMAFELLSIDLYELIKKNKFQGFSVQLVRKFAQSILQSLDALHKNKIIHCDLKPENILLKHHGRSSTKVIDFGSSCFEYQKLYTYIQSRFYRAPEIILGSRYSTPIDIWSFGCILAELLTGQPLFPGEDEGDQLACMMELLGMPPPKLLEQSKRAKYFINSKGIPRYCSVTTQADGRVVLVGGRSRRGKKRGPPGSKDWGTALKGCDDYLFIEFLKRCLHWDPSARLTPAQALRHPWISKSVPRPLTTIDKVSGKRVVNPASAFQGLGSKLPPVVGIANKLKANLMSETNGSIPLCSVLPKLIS

[23] = target: PDGFRA (Homo sapiens, UniProt P16234); test: ICKP radiometric kinase assay; type: biochemical; details: read-out: % AR (% kinase activity remaining)
[24] = target: IRR (Homo sapiens, UniProt P14616); test: ICKP radiometric kinase assay; type: biochemical; details: read-out: % AR (% kinase activity remaining)
[25] = target: MARK1 (Homo sapiens, UniProt Q9P0L2); test: ICKP radiometric kinase assay; type: biochemical; details: read-out: % AR (% kinase activity remaining)
[26] = target: mTOR (Homo sapiens, UniProt P42345); test: Z’-LYTE enzymatic assay; details: Z’-LYTE assay at [ATP]=apparent Km; read-out: Biochemical IC50 mTOR
[27] = target: VEGFR1 (Homo sapiens, UniProt P17948); test: ICKP radiometric kinase assay; type: biochemical; details: read-out: % AR (% kinase activity remaining)
[28] = target: S6K1 (Homo sapiens, UniProt P23443); test: ICKP radiometric kinase assay; type: biochemical; details: read-out: % AR (% kinase activity remaining)
[29] = target: Src (Homo sapiens, UniProt P12931); test: ICKP radiometric kinase assay; type: biochemical; details: read-out: % AR (% kinase activity remaining)
[30] = target: PIK3CA (Homo sapiens, UniProt P42336); test: Adapta kinase assay; details: Adapta assay at [ATP]=apparent Km; read-out: Biochemical IC50 PIK3CA
[31] = target: JNK3 (Homo sapiens, UniProt P53779); test: ICKP radiometric kinase assay; type: biochemical; details: read-out: % AR (% kinase activity remaining)
[32] = target: MST4 (Homo sapiens, UniProt Q9P289); test: ICKP radiometric kinase assay; type: biochemical; details: read-out: % AR (% kinase activity remaining)
[33] = target: GCK (Homo sapiens, UniProt Q12851); test: ICKP radiometric kinase assay; type: biochemical; details: read-out: % AR (% kinase activity remaining)
[34] = target: EIF2AK3 (Homo sapiens, UniProt Q9NZJ5); test: ICKP radiometric kinase assay; type: biochemical; details: read-out: % AR (% kinase activity remaining)
[35] = HCC70, 72 h, read-out: 3-day antiproliferative IC50
[36] = HCC70, 168 h, read-out: 7-day antiproliferative IC50

Sequence of FGF-R1 (P11362 22-822): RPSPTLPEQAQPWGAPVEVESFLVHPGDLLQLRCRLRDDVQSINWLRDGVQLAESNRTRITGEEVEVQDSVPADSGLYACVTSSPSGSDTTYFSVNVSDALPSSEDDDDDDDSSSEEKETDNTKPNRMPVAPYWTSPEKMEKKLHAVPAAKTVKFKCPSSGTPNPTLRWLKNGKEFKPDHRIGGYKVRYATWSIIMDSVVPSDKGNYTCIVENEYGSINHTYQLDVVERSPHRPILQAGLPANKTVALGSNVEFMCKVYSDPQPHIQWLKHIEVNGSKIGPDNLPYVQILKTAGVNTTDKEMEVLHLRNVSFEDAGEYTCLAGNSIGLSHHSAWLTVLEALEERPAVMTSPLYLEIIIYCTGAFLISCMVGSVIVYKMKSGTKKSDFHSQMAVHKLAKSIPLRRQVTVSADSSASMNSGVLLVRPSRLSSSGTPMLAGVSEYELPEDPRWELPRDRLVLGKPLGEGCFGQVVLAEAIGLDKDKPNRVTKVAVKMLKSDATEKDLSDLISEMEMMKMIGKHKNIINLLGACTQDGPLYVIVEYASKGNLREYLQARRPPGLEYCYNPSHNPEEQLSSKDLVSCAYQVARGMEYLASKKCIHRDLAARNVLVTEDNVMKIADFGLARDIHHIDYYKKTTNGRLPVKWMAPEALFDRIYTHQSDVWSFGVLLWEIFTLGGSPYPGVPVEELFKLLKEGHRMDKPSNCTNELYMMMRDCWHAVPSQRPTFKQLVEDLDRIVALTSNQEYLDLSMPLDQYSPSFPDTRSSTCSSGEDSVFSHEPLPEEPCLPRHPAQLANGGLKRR
Sequence of PIK3CA (P42336 whole entry): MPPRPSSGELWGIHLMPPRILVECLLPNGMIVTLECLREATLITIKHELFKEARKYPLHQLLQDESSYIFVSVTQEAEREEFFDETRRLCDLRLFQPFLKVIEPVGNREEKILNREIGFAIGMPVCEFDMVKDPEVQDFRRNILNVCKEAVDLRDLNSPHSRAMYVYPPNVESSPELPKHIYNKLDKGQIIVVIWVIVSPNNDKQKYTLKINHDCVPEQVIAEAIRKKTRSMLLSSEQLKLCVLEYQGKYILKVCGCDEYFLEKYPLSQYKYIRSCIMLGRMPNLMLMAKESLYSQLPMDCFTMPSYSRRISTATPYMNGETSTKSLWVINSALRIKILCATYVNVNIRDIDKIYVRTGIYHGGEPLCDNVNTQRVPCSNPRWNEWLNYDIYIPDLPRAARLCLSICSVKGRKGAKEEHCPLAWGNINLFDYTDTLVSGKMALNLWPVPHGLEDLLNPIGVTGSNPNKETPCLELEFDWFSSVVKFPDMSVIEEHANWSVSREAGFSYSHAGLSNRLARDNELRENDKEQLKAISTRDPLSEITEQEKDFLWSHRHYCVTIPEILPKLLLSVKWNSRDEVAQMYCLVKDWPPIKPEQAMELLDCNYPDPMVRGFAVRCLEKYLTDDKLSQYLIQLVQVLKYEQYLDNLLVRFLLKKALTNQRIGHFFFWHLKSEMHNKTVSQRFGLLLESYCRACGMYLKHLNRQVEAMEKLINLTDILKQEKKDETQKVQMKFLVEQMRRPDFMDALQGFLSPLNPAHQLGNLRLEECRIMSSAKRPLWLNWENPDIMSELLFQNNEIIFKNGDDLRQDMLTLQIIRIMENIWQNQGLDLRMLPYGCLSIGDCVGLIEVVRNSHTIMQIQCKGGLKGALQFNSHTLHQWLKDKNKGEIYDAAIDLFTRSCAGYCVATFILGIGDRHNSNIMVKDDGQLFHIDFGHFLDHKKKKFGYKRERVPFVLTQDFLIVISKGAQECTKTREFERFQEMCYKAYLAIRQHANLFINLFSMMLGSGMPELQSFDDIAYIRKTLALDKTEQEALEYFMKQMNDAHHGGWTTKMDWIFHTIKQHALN
Sequence of PIK3CA (P27986 whole entry partner): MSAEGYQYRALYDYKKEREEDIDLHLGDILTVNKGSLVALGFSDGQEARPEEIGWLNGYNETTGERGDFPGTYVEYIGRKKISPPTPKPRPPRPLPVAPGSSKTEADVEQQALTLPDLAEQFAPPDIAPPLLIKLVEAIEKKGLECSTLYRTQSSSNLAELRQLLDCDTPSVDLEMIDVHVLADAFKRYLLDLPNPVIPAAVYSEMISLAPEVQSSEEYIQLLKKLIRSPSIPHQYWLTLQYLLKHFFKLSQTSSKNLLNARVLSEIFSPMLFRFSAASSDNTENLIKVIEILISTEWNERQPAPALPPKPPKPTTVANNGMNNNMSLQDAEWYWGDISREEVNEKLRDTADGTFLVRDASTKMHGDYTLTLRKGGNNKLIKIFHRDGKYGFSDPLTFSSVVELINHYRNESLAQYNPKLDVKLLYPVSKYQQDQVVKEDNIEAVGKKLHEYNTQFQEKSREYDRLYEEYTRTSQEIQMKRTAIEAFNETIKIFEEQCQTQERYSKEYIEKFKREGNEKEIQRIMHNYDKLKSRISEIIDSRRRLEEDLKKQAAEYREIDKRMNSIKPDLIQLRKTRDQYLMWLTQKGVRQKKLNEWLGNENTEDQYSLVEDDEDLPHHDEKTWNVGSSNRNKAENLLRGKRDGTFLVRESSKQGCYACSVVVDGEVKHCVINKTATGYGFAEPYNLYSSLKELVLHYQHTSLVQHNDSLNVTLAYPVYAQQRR
Sequence of IRR (P14616 27-1297): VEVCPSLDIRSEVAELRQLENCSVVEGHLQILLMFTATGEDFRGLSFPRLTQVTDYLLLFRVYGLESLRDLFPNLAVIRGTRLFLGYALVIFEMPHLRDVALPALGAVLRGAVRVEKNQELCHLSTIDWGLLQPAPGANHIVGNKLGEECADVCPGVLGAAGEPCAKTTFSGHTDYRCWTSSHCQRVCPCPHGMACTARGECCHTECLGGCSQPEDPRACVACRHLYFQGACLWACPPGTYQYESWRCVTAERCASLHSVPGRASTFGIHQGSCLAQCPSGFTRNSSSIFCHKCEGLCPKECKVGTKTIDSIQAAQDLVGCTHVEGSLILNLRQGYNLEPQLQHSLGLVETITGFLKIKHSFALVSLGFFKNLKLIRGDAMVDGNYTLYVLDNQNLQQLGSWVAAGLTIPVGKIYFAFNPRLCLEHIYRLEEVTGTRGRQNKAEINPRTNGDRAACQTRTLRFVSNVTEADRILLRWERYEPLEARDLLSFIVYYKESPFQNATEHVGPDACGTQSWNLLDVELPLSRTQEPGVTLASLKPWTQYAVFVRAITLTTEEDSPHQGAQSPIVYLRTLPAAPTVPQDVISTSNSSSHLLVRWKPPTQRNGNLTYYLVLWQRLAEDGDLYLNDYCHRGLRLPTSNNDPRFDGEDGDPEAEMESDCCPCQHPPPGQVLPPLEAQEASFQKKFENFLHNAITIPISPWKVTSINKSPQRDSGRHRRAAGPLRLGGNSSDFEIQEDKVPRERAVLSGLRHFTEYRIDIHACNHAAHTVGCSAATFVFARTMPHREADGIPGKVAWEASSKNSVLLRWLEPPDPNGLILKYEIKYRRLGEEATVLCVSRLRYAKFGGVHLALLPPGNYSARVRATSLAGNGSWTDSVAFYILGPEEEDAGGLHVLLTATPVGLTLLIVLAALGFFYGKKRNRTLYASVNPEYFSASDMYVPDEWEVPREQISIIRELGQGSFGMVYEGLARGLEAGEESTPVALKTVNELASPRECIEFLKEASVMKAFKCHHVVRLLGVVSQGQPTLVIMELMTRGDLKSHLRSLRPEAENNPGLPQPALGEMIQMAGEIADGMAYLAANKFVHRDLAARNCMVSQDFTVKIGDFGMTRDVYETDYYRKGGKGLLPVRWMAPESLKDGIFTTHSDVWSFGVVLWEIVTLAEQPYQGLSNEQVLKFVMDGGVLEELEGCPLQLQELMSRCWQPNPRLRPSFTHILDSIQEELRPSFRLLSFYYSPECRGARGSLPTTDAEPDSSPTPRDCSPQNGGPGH
Sequence of JNK2 (P45984 whole entry): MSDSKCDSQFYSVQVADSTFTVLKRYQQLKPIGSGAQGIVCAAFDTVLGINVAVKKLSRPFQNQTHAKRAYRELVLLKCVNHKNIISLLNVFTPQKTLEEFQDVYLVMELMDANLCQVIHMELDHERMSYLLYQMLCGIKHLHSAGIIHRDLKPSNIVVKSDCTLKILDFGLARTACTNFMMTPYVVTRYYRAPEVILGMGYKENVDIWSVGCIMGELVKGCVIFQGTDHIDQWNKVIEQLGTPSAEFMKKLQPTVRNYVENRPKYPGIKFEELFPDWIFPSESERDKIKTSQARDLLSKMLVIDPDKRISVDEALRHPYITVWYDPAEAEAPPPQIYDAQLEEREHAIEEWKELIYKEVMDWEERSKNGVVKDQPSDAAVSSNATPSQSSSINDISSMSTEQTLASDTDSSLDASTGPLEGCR
Sequence of CAMK1 (Q14012 whole entry): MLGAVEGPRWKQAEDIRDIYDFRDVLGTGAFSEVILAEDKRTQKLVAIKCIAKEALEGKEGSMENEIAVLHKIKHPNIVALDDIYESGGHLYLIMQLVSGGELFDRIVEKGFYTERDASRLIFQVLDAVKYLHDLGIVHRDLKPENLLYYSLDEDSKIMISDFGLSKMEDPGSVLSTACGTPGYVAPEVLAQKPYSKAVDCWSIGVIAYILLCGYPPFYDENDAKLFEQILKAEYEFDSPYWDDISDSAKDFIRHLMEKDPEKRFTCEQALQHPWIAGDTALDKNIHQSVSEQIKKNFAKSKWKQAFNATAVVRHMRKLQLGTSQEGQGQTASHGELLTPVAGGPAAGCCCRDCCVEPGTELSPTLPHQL
Sequence of MST4 (Q9P289 whole entry): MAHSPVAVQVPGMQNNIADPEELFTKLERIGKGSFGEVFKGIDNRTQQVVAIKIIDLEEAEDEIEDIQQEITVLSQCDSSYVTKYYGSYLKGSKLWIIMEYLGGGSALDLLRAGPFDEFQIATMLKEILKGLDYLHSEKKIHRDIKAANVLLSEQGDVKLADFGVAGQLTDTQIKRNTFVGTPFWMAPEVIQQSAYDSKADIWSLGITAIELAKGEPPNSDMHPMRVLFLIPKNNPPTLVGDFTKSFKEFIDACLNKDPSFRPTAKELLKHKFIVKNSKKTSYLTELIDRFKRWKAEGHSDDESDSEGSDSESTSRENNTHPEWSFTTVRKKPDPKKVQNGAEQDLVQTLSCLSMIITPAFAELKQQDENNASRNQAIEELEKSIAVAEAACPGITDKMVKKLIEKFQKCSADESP

Structure (SMILES) | remaining activity at 1 µM [1] | remaining activity at 1 µM [2] | remaining activity at 1 µM [3] | remaining activity at 1 µM [4] | IC50 [5, 35] | IC50 [5, 36] | remaining activity at 1 µM [6] | remaining activity at 1 µM [7] | remaining activity at 1 µM [8] | remaining activity at 1 µM [9] | remaining activity at 1 µM [10] | IC50 [11] | % AR (% kinase activity remaining) [12] | remaining activity at 1 µM [13] | remaining activity at 1 µM [14] | remaining activity at 1 µM [15] | remaining activity at 1 µM [16] | remaining activity at 1 µM [17] | remaining activity at 1 µM [18] | remaining activity at 1 µM [19] | also measured
CN(C)C[C@H]1CC[C@H](N2C(=O)NCc3cnc4ccc(-c5cc(Cl)c(O)c(Cl)c5)cc4c32)CC1 [HTH-01-091, 9-(3,5-dichloro-4-hydroxyphenyl)-1-(trans-4-((dimethylamino)methyl)cyclohexyl)-3,4-dihydropyrimido[5,4 c]quinolin-2(1H)-one] | 79% | 79% | 100% | 104% | 8800 nM | 2430 nM | 78% | 93% | 97% | 38% | 2% | 1740 nM | 74% | 62% | 96% | 73% | 94% | 125% | 95% | 111% | remaining activity at 1 µM [20]: 32%; remaining activity at 1 µM [21]: 82%; remaining activity at 1 µM [22]: 5%; IC50 ([22]; radioactive filter-binding assay provided by the ICKP, read-out: Enzymatic IC50 DYRK3): 41.8 nM; remaining activity at 1 µM [23]: 35%; remaining activity at 1 µM [24]: 79%; remaining activity at 1 µM [25]: 97%; IC50 [26]: 632 nM; remaining activity at 1 µM [27]: 43%; remaining activity at 1 µM [28]: 81%; remaining activity at 1 µM [29]: 54%; IC50 [30]: 962 nM; remaining activity at 1 µM [31]: 101%; remaining activity at 1 µM [32]: 96%; remaining activity at 1 µM [33]: 16%; remaining activity at 1 µM [34]: 114%
CC(=O)c1cnc2ccc(-c3cc(Cl)c(O)c(Cl)c3)nc2c1N[C@H]1CC[C@H](CN(C)C)CC1 [OTSSP167] | 6% | 9% | 16% | 41% | 34 nM | 21 nM | 16% | 15% | 10% | 2% | 0% | 1.6 nM | 3% | 3% | 8% | 19% | 23% | 2% | 58% | 96% | remaining activity at 1 µM [20]: 18%; remaining activity at 1 µM [21]: 4%; remaining activity at 1 µM [22]: 1%; remaining activity at 1 µM [23]: 20%; remaining activity at 1 µM [24]: 6%; remaining activity at 1 µM [25]: 31%; IC50 [26]: 35.7 nM; remaining activity at 1 µM [27]: 1%; remaining activity at 1 µM [28]: 2%; remaining activity at 1 µM [29]: 5%; IC50 [30]: 66.5 nM; remaining activity at 1 µM [31]: 13%; remaining activity at 1 µM [32]: 5%; remaining activity at 1 µM [33]: 0%; remaining activity at 1 µM [34]: 7%
